One may read the IC50 as the point on the concentration scale where inhibition reaches its midpoint.

The target of the assay is T1, human recombinant ROCK II (Homo sapiens, UniProt O75116).
T1 construct: recombinant human ROCK-II residues 11-552; His6 (N); purchased Upstate Ltd., Dundee, UK
Put plainly: Determination of Rho kinase inhibition (Caliper peptide phosphorylation assay). To be noted: negative decadal logarithm of the IC50; ROCK II residues 11-552, fluorescein peptide substrate, 60 min at 32° C.; tested as salt or free base obtained in the examples. Type of assay: biochemical. The protocol: To measure Rho-kinase inhibition, IC50 values were determined according to the following protocol:
Active human recombinant ROCK II (N-terminal His6-tagged recombinant human ROCK-II residues 11-552) was purchased from Upstate Ltd., Dundee, UK. The peptide substrate, Fluorescein-AKRRRLSSLRA-COOH, was obtained from JPT Peptide Technologies, Berlin, Germany. Adenosine-5′-triphosphate (ATP), bovine serum albumine (BSA), dimethylsulphoxide (DMSO), 4-(2-Hydroxyethyl)piperazine-1-ethanesulfonic acid (Hepes), Brij-35 and dithiothreitol (DTT) were purchased from Sigma-Aldrich, Munich, Germany. Tris(hydroxymethyl)-aminomethane (Tris), magnesium chloride, NaOH, 1M HCl and EDTA were obtained from Merck Biosciences, Darmstadt, Germany. “Complete” protease inhibitor was from Roche Diagnostics, Mannheim, Germany.
Test compounds were diluted to the appropriate concentrations in buffer 1 (25 mM Tris-HCl, pH 7.4, 5 mM MgCl2, 2 mM DTT, 0.02% (w/v) BSA and 3% DMSO). The ROCK II enzyme was diluted to a concentration of 100 ng/ml in buffer 2 (25 mM Tris-HCl, pH 7.4, 5 mM MgCl2, 2 mM DTT and 0.02% (w/v) BSA). The peptide substrate and ATP were diluted to concentrations of 3 μM and 120 μM, respectively, in the buffer 2. Two μl of the compound solution were mixed with 2 μl of the diluted enzyme in a 384-well small volume microtiter plate (Greiner, Bio-One, Frickenhausen, Germany), and the kinase reaction was initiated by addition of 2 μl of the solution containing peptide substrate and ATP. After 60 min incubation at 32° C., the reaction was stopped by addition of 20 μl of a solution containing 100 mM Hepes-NaOH, pH 7.4, 0.015% (v/v) Brij-35, 45 mM EDTA and 0.227% chip coating reagent 1 (Caliper Lifescience Inc, Hopkinton, Mass.). Phosphorylation of the substrate peptide was then detected on a Caliper 3000 instrument essentially as described by Pommereau et al (J. Biomol. Screening 9(5), 409-416, 2004). Separation conditions were as follows: Pressure −1.3 psi, upstream voltage −1562 V, downstream voltage −500 V, sample sip time 200 ms. Positive controls (buffer 1 instead of compound) and negative controls (buffer 1 instead of compound and buffer 2 instead of ROCK II) were run in parallel on each plate.
The following products/compounds were tested in said assay by using the respective form (salt or free base) obtained as in the examples described above and the following activities were measured.

Structures can show the parent of a compound that is named as a salt.

T1 sequence (O75116 11-552): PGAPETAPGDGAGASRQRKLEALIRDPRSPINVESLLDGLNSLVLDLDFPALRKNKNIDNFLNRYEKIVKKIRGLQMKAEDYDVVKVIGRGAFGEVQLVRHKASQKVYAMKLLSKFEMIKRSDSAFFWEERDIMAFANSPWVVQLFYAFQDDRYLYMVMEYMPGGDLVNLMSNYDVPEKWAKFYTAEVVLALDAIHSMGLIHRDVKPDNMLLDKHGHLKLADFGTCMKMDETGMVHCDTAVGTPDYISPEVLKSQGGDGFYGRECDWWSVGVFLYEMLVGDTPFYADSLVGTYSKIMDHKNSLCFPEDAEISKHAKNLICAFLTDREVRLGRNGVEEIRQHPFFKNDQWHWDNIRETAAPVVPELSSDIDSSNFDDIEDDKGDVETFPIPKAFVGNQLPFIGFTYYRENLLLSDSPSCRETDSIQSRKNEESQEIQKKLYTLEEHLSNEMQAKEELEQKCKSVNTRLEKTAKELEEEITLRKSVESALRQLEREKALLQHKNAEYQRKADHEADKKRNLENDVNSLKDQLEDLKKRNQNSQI

Turning to `CC(C)N[C@H]1CC[C@@H](Nc2ccc3c(=O)[nH]ccc3c2)CC1` [Compound 49, 6-cis-(4-Isopropyl-amino-cyclohexyl-amino)-2H-iso-quinolin-1-one], the IC50 is 1 to 10 µM.

Take `N[C@H]1CC[C@@H](Sc2cc3ccncc3cc2Cl)CC1` [Compound 61, cis-4-(7-Chloro-isoquinolin-6-ylsulfanyl)-cyclohexylamine]: the IC50 was not above 1 µM.

Turning to `CCN[C@H]1CC[C@@H](Nc2ccc3c(=O)[nH]ccc3c2)CC1` [Compound 45, 6-cis-(4-ethylamino-cyclohexylamino)-2H-isoquinolin-1-one], the IC50 is not above 1 µM.

Turning to `O=c1[nH]ccc2cc(N[C@H]3CC[C@@H](NC4CC4)CC3)ccc12` [Compound 53, 6-cis-(4-Cyclopropyl-amino-cyclo-hexylamino)-2H-isoquinolin-1-one], the IC50 is not above 1 µM.

On to `CCCN[C@H]1CC[C@@H](Nc2ccc3c(=O)[nH]ccc3c2)CC1` [Compound 47, 6-cis-(4-Propyl-amino-cyclohexyl-amino)-2H-iso-quinolin-1-one], for which the IC50 is not above 1 µM.

Regarding `O=c1[nH]ccc2cc(N[C@H]3CC[C@@H](N(C4CC4)C4CC4)CC3)ccc12` [Compound 54, 6-cis-(4-Dicyclo-propyl-amino-cyclohexyl-amino)-2H-isoquinolin-1-one], the IC50 is not above 1 µM.

As to `N[C@H]1CC[C@H](Nc2ccc3c(=O)[nH]ccc3c2)CC1` [Compound 36, 6-trans-(4-Amino-cyclohexyl-amino)-2H-isoquinolin-1-one], the IC50 is not above 1 µM.

Turning to `CCN(CC)[C@H]1CC[C@@H](Nc2ccc3c(=O)[nH]ccc3c2)CC1` [Compound 44, 6-cis-(4-Diethyl-amino-cyclohexyl-amino)-2H-iso-quinolin-1-one], the IC50 is 1 to 10 µM.

On to `O=c1[nH]ccc2cc(N[C@H]3CC[C@@H](NCc4ccccc4)CC3)ccc12` [Compound 48, 6-cis-(4-Benzyl-amino-cyclohexyl-amino)-2H-iso-quinolin-1-one], for which the IC50 is 1 to 10 µM.

For the compound `O=c1[nH]ccc2cc(N[C@H]3CC[C@@H](NCC4CCNCC4)CC3)ccc12` [Compound 52, 6-cis-{4-[(Piperidin-4-ylmethyl)-amino]-cyclohexyl-amino}-2H-isoquinolin-1-one], the IC50 is not above 1 µM.

As for `NC1CCCC(Nc2ccc3c(=O)[nH]ccc3c2)C1` (centres unmarked) [Compound 41, 6-(3-Amino-cyclohexylamino)-2H-isoquinolin-1-one], the IC50 is not above 1 µM.

For the compound `N[C@H]1CC[C@@H](Sc2cc3cc[nH]c(=O)c3cc2Cl)CC1` [Compound 64, 6-cis-(4-Amino-cyclohexylsulfanyl)-7-chloro-2H-isoquinolin-1-one], the 50% inhibitory concentration (IC50) is not above 1 µM.

For the compound `CCCN(CCC)[C@H]1CC[C@@H](Nc2ccc3c(=O)[nH]ccc3c2)CC1` [Compound 46, 6-cis-(4-Dipropyl-amino-cyclohexyl-amino)-2H-iso-quinolin-1-one], the IC50 was 1 to 10 µM.

Take `N[C@H]1CCCC[C@H]1Nc1ccc2c(=O)[nH]ccc2c1` (relative stereo) [Compound 40, 6-cis-(2-Amino-cyclohexyl-amino)-2H-isoquinolin-1-one]: the IC50 was not above 1 µM.

As for `O=c1[nH]ccc2cc(N[C@H]3CC[C@@H](NCc4ccc(Cl)cc4)CC3)ccc12` [Compound 51, 6-cis-[4-(4-Chloro-benzylamino)-cyclohexyl-amino]-2H-isoquinolin-1-one], the IC50 is 1 to 10 µM.

In the case of `N[C@H]1CC[C@@H](Sc2cc3ccncc3cc2Br)CC1` [Compound 62, cis-4-(7-Bromo-isoquinolin-6-ylsulfanyl)-cyclohexylamine hydrochloride], the half-inhibitory concentration (IC50) is not above 1 µM.

On to `O=c1[nH]ccc2cc(N[C@H]3CC[C@@H](NCc4cccc(Cl)c4)CC3)ccc12` [Compound 50, 6-cis-[4-(3-Chloro-benzylamino)-cyclohexyl-amino]-2H-isoquinolin-1-one], for which the IC50 is 1 to 10 µM.

Source of the values: US20100056568A1, “Cycloalkylamine substituted isoquinolone and isoquinolinone derivatives” (sanofi-aventis, priority 2006, published 2010).
